From ChEMBL document CHEMBL1201862, “PubChem BioAssay data set” (2004)
One block for each molecule: values may come before it. Active and inactive are the calls of the source.

Assays:
[1] = target: Hexokinase (Trypanosoma brucei, UniProt Q38C41); experiment: Confirmation assay for inhibitors of Trypanosoma brucei hexokinase 1-Analogue-first series. [Related pubchem assays (depositor defined):AID1430, AID1632, AID2516, AID2560, AID2579, AID2600, AID449725, AID492951]; format: functional
[2] = target: T1, Tyrosine-protein phosphatase non-receptor type 22 (Homo sapiens, UniProt Q9Y2R2); format: functional
T1 sequence (Q9Y2R2 whole entry): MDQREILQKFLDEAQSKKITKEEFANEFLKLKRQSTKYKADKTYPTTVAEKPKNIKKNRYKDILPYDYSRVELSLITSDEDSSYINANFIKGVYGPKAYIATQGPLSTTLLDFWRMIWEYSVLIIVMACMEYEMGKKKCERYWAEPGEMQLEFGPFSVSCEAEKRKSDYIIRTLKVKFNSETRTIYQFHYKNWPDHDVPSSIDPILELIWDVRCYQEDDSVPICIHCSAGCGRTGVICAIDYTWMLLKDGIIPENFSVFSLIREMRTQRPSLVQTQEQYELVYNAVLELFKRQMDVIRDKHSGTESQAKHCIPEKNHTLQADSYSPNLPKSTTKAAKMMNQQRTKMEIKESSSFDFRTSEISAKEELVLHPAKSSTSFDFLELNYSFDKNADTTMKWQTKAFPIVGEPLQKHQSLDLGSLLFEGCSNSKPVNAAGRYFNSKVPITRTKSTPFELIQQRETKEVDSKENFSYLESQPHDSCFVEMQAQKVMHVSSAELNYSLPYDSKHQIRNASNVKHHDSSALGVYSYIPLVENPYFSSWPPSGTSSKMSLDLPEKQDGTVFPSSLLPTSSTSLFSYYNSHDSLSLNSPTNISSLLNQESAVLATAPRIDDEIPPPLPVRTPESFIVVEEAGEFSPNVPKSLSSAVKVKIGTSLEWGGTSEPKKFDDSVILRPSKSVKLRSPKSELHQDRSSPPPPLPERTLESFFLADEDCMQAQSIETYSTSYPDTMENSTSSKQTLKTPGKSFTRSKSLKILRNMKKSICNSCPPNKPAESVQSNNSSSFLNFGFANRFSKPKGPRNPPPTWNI

[3] = target: T2, Tyrosine-protein phosphatase non-receptor type 7 (Homo sapiens, UniProt P35236); format: functional
T2 sequence (P35236 whole entry): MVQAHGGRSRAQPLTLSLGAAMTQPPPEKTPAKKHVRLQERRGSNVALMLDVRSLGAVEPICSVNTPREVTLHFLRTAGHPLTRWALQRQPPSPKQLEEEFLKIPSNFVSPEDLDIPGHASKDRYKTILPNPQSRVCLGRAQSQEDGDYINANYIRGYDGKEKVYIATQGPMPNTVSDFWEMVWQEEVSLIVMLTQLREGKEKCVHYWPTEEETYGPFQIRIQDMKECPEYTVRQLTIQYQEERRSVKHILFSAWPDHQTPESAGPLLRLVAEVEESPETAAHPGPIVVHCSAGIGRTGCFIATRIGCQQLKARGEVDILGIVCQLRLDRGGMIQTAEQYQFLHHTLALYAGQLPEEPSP

[4] = target: T1, Tyrosine-protein phosphatase non-receptor type 22; format: functional; remark: listed apart in the source
[5] = target: T3, Eukaryotic translation initiation factor 2-alpha kinase 3 (Homo sapiens, UniProt Q9NZJ5); experiment: Counterscreen assay for PERK inhibitors: Dose response cell-based high throughput screening assay to measure inhibition of PERK at 6 hours. [Related pubchem assays: 1522, 1416 ]; format: functional
T3 sequence (Q9NZJ5 whole entry): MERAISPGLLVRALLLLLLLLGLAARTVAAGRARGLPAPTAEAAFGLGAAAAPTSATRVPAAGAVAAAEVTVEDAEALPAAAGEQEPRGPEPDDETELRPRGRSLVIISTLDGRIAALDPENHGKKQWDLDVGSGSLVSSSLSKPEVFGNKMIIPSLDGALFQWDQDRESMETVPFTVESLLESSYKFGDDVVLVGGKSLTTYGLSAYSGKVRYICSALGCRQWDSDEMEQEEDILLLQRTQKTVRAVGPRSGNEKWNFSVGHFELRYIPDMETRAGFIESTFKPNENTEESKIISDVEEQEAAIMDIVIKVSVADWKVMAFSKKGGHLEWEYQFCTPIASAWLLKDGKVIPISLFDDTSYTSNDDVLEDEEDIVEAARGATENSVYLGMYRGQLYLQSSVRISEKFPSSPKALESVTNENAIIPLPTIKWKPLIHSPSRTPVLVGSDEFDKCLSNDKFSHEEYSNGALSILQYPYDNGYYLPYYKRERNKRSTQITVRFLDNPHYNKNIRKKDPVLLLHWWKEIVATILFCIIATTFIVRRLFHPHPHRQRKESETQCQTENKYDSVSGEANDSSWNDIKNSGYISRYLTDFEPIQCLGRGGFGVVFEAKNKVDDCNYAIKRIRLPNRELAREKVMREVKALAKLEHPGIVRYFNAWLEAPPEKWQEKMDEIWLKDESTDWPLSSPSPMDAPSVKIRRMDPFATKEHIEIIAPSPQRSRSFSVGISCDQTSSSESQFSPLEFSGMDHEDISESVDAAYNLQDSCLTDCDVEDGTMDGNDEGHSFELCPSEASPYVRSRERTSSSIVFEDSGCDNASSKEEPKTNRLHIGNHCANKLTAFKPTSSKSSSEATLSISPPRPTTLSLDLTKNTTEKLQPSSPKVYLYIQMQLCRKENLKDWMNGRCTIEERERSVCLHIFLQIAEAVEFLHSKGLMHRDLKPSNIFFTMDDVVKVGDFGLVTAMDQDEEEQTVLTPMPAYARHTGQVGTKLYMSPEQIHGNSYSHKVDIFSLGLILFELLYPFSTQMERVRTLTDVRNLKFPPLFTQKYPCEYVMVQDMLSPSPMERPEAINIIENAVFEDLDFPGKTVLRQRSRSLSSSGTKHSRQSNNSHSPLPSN

[6] = target: T3, Eukaryotic translation initiation factor 2-alpha kinase 3; experiment: Dose response cell-based high-throughput screening assay to measure PERK inhibition. [Related pubchem assays: 1416 ]; format: functional
[7] = target: T4, Heat shock factor protein 1 (Mus musculus, UniProt P38532); experiment: enhancement of HSF1-driven luciferase signal – cell-based, NIH3T3, luminescence, dose retest, confirmation (AID 435004); format: functional;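 note: stress induced by proteasome inhibitor MG132 added 30 min after compound; luciferase reporter driven by HSF1 response element in NIH3T3 cells; actives raise luminescence as potentiators of the MG132 stress response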
T4 sequence (P38532 whole entry): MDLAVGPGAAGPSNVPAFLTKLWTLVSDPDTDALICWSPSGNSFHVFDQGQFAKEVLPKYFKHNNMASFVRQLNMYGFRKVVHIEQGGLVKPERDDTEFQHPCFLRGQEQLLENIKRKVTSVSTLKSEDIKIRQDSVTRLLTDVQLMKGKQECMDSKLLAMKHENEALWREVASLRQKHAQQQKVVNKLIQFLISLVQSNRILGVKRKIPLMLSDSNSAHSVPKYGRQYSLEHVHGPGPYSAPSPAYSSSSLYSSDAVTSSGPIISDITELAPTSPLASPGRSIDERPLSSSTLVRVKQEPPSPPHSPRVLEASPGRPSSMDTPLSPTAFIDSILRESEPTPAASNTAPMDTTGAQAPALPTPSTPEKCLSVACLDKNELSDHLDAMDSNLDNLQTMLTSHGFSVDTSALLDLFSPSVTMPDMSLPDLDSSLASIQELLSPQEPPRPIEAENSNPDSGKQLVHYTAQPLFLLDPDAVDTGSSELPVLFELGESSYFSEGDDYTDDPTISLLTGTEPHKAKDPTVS

[8] = tested on: HeLa; experiment: viability loss in HeLa cells – cell-based, 24 h, cherry-picked samples, cytotoxicity control, dose response (AID 504726); format: functional; details: Homo sapiens;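 note: potency for cytotoxicity as loss of luminescence signal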
[9] = target: Troponin, cardiac muscle (Homo sapiens, UniProt P19429+P45379+P63316); experiment: Fluorescence-based biochemical high throughput dose response assay for activators of the calcium sensitivity of cardiac Regulated Thin Filaments (RTF). [Related pubchem assays (depositor defined):AID493008, AID493018, AID504382, AID504383]; format: protein-complex assay
[10] = target: T5, Voltage-gated N-type calcium channel alpha-1B subunit/Amyloid beta A4 precursor protein-binding family A member 1 (Homo sapiens, UniProt Q00975+Q02410); format: protein assay
[11] = target: T5, Voltage-gated N-type calcium channel alpha-1B subunit/Amyloid beta A4 precursor protein-binding family A member 1; format: protein assay; remark: listed apart in the source
[12] = cells

T5 sequence (Q00975 whole entry): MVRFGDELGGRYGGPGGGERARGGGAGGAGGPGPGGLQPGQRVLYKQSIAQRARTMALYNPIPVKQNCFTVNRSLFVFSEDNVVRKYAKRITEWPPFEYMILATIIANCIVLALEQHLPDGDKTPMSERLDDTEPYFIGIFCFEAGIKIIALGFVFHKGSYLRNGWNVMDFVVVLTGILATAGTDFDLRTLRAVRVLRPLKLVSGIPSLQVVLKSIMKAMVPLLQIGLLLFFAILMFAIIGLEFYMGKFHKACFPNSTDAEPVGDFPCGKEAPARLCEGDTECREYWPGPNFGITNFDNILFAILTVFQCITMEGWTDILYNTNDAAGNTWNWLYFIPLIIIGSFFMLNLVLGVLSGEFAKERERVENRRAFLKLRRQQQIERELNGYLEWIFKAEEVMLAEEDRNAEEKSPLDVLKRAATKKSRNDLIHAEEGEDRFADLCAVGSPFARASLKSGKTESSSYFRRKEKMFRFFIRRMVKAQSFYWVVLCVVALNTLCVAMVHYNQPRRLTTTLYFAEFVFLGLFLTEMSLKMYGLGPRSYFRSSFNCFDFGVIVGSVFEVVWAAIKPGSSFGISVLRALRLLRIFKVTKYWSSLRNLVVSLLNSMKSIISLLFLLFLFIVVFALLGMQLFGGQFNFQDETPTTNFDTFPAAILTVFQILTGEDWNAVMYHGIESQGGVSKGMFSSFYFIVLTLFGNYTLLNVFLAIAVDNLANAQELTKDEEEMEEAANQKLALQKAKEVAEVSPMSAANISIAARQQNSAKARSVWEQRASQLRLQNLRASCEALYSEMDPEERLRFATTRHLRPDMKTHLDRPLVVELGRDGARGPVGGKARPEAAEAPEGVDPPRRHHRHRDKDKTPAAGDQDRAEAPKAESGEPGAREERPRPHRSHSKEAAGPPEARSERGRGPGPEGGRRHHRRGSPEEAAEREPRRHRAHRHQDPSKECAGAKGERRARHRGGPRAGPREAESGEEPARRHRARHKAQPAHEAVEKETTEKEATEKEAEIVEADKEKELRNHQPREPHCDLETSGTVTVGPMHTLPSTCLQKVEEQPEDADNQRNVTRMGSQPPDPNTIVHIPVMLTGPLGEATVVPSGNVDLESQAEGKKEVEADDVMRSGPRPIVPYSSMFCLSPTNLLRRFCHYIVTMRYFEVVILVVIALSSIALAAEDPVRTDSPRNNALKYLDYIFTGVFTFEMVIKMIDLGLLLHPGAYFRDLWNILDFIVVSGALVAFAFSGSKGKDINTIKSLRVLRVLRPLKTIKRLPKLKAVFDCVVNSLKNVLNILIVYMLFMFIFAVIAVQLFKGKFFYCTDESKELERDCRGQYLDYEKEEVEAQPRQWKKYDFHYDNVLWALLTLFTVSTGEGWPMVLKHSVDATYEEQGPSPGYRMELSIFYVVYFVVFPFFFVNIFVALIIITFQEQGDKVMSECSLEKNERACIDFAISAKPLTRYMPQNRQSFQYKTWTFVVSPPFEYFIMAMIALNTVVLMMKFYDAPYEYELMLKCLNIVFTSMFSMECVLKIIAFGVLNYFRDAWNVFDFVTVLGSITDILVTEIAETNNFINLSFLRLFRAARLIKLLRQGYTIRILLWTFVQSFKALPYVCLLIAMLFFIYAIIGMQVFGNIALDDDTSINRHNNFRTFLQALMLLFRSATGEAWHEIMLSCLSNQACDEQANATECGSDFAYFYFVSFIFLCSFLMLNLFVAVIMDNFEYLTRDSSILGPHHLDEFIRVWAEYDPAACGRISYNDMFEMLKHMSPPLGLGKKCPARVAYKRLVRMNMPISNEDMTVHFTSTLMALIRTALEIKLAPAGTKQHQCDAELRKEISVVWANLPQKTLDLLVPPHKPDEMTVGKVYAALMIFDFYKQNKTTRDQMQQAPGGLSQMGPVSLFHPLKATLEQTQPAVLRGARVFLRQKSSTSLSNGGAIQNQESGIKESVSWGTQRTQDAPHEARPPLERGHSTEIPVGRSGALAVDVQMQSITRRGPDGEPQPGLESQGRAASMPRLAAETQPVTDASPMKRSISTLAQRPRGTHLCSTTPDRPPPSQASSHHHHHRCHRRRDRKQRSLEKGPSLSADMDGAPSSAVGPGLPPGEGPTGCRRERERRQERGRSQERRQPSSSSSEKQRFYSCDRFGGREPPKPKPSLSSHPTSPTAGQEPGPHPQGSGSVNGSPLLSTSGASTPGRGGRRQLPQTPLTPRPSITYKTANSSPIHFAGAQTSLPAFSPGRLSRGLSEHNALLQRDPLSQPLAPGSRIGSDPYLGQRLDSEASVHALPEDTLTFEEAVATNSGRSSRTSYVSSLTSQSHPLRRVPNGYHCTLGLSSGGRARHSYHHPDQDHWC
T5 sequence (Q02410 whole entry): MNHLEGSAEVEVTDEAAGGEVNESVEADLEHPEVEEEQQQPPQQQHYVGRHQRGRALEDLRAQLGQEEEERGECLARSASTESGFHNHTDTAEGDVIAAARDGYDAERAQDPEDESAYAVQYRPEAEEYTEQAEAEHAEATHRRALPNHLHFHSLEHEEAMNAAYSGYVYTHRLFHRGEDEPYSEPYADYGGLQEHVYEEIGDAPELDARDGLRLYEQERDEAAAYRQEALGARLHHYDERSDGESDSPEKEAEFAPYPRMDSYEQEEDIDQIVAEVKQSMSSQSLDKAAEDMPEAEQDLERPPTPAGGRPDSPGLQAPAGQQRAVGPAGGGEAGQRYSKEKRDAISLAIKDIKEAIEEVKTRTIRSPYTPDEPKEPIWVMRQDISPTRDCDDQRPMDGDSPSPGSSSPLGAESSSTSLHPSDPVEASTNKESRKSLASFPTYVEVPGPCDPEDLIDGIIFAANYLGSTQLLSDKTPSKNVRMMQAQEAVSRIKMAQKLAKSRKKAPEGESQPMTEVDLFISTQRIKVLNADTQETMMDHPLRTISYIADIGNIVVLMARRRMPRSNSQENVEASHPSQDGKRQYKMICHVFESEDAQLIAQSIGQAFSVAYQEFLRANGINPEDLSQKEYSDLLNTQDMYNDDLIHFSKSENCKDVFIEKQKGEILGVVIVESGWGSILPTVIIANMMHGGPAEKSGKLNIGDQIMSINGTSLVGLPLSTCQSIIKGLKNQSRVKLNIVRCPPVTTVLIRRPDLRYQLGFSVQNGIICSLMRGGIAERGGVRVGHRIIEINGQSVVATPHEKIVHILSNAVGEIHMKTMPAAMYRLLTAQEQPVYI
Hexokinase, sequence (Q38C41 whole entry): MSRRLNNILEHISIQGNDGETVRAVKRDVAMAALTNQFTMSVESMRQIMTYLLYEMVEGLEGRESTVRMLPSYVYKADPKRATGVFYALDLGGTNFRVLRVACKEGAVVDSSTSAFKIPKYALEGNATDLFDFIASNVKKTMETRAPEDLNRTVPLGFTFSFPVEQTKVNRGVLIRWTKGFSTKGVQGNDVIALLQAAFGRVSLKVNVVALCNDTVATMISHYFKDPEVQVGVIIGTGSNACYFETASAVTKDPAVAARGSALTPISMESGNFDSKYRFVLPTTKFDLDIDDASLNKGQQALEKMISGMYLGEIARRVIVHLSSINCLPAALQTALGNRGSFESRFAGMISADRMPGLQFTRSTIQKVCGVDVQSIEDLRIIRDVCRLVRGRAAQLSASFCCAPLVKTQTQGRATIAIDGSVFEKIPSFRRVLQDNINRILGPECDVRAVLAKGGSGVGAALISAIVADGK

Structure (SMILES): O=C(O)c1ccc(Cl)cc1NC(=O)c1coc2ccccc12
- IC50 [1]: > 25 µM (inactive)

- IC50 [2]: > 79.4 µM (inactive)
- IC50 [3]: > 79.4 µM (inactive)
- IC50 [4]: > 79.4 µM (inactive)
Structure (SMILES): CCC1CCCCN1CCCNC(=O)c1ccc(CS(=O)(=O)Cc2ccccc2F)o1 (stereo not given)

- IC50 [2]: > 79.4 µM (inactive)
- IC50 [3]: > 79.4 µM (inactive)
- IC50 [4]: > 79.4 µM (inactive)
Structure (SMILES): Cc1cc(C)cc(OCC(=O)N/N=C\c2cn(C)nc2C)c1

- EC50 [5]: > 55.7 µM (not active)
- EC50 [6]: > 55.7 µM (not active)
Structure (SMILES): COC(=O)Cc1ccc(NC(S)=NNC(=O)C2CC2)cc1

Structure (SMILES): Cn1c(=O)c2c(nc(N/N=C/c3ccc(OC(=O)c4ccco4)cc3)n2Cc2ccc(F)cc2)n(C)c1=O
- EC50 [7]: 3.74 µM (active)
- AC50 [8]: 43.7 µM (active)

- EC50 [9]: > 71.4 µM (inactive)
Structure (SMILES): CC(C)Sc1nc2cc(Br)ccc2[nH]1

Structure (SMILES): C=C(C)C(=O)Nc1cccc(C2=NOC3(C2)C[C@@H](C(N)=O)N(C(=O)c2ccc(OC)cc2)C3)c1 (stereo not given in full)
- IC50 [10]: > 50 µM (inactive)
- IC50 [11]: > 56.8 µM (not active)
- IC50 [12]: 38.9 µM (active)
